Results as given in ChEMBL document CHEMBL5131399, “Broadening antifungal spectrum and improving metabolic stablity based on a scaffold strategy: Design, synthesis, and evaluation of novel 4-phenyl-4,5-dihydrooxazole derivatives as potent fungistatic and fungicidal reagents” (Eur J Med Chem, 2022).
In brackets after ≈: the same amount, converted by molar mass.

Experiments:
[1] = test system: Candida albicans; assay: Antifungal activity against FLC-resistant Candida albicans 904 assessed as fungal growth inhibition by NCCLS protocol based method; type: functional
[2] = test system: Candida parapsilosis; assay: Antifungal activity against Candida parapsilosis GIM2.190 assessed as fungal growth inhibition by NCCLS protocol based method; type: functional; conditions: Lodderomyces parapsilosis
[3] = test system: Nakaseomyces glabratus; assay: Antifungal activity against Candida glabrata clinical isolate assessed as fungal growth inhibition by NCCLS protocol based method; type: functional
[4] = test system: Candida albicans; assay: Antifungal activity against FLC-resistant Candida albicans 632 assessed as fungal growth inhibition by NCCLS protocol based method; type: functional
[5] = test system: Aspergillus fumigatus; assay: Antifungal activity against Aspergillus fumigatus CGMCC3.7795 assessed as fungal growth inhibition by NCCLS protocol based method; type: functional
[6] = test system: Candida albicans; assay: Antifungal activity against FLC-resistant Candida albicans 901 assessed as fungal growth inhibition by NCCLS protocol based method; type: functional
[7] = test system: Candida albicans; assay: Antifungal activity against Candida albicans CPCC400616 assessed as fungal growth inhibition by NCCLS protocol based method; type: functional
[8] = test system: Candida albicans; assay: Antifungal activity against FLC-resistant Candida albicans 103 assessed as fungal growth inhibition by NCCLS protocol based method; type: functional
[9] = test system: Pichia kudriavzevii; assay: Antifungal activity against Candida krusei GIM2.1 assessed as fungal growth inhibition by NCCLS protocol based method; type: functional
[10] = test system: Candida albicans; assay: Antifungal activity against Candida albicans ATCC SC5314 assessed as fungal growth inhibition by NCCLS protocol based method; type: functional
[11] = test system: Candida albicans; assay: Antifungal activity against FLC-resistant Candida albicans 311 assessed as fungal growth inhibition by NCCLS protocol based method; type: functional
[12] = test system: Candida albicans; assay: Antifungal activity against FLC-resistant Candida albicans 100 assessed as fungal growth inhibition by NCCLS protocol based method; type: functional
[13] = test system: Cryptococcus neoformans; assay: Antifungal activity against Cryptococcus neoformans CGMCC 2.3161 assessed as fungal growth inhibition by NCCLS protocol based method; type: functional
[14] = test system: Candida albicans; assay: Antifungal activity against FLC-resistant Candida albicans CaR assessed as fungal growth inhibition by NCCLS protocol based method; type: functional
[15] = test system: Candida tropicalis; assay: Antifungal activity against Candida tropicalis CGMCC 2.3739 assessed as fungal growth inhibition by NCCLS protocol based method; type: functional
[16] = test system: Candida albicans; assay: […] for fungicidal activity against Candida albicans CPCC400616; type: functional
[17] = test system: HepG2; assay: Cytotoxicity against human HepG2 cells assessed as inhibition of cell growth incubated for 4 hrs by MTT assay; type: functional, cell-based; conditions: HepG2, 4 h
[18] = test system: Candida albicans; assay: Antibiofilm activity against FLC-resistant Candida albicans CPCC400616 assessed as assessed as inhibition of biofilm formation measured at 6 hrs by XTT reduction assay; type: functional
[19] = test system: A549; assay: Cytotoxicity against human A549 cells assessed as inhibition of cell growth incubated for 4 hrs by MTT assay; type: functional, cell-based; conditions: A549, 4 h
[20] = Cytotoxicity against human HEK293T cells assessed as inhibition of cell growth incubated for 4 hrs by MTT assay; type: toxicity, cell-based, HEK-293T
[21] = test system: MCF7; assay: Cytotoxicity against human MCF7 cells assessed as inhibition of cell growth incubated for 4 hrs by MTT assay; type: functional, cell-based; conditions: MCF7, 4 h
[22] = test system: Candida albicans; assay: Fungicidal activity against Candida albicans CPCC400616 assessed as minimum inhibitory concentration incubated for 48 hrs; type: functional
[23] = test system: Candida albicans; assay: Antibiofilm activity against FLC-resistant Candida albicans CPCC400616 assessed as assessed as inhibition of biofilm formation measured at 24 hrs by XTT reduction assay; type: functional
[24] = test system: Candida albicans; assay: Antibiofilm activity against FLC-resistant Candida albicans CPCC400616 assessed as assessed as inhibition of biofilm formation measured at 18 hrs by XTT reduction assay; type: functional
[25] = test system: Candida albicans; assay: Antibiofilm activity against FLC-resistant Candida albicans CPCC400616 assessed as assessed as inhibition of biofilm formation measured at 3 hrs by XTT reduction assay; type: functional
[26] = test system: Candida albicans; assay: Fungicidal activity against Candida albicans CPCC400616 assessed as minimum fungicidal concentration incubated for 48 hrs; type: functional

Row | SMILES | MIC [2] | MIC [3] | MIC [5] | MIC [7] | MIC [9] | MIC [10] | MIC [13] | MIC [15] | further results
1 | Clc1ccc(C2(Cn3ccnc3)COC(c3ccc(-c4ccccc4)s3)=N2)cc1 (configuration not stated) | 2 µg/mL (≈ 4.76 µM) | 16 µg/mL (≈ 38.1 µM) | 8 µg/mL (≈ 19.1 µM) | 0.25 µg/mL (≈ 0.595 µM) | 16 µg/mL (≈ 38.1 µM) | 0.25 µg/mL (≈ 0.595 µM) | 0.5 µg/mL (≈ 1.19 µM) | 0.125 µg/mL (≈ 0.298 µM) | MIC [1]: 2 µg/mL (≈ 4.76 µM); MIC [4]: 1 µg/mL (≈ 2.38 µM); MIC [6]: 0.5 µg/mL (≈ 1.19 µM); MIC [8]: 4 µg/mL (≈ 9.53 µM); MIC [11]: 4 µg/mL (≈ 9.53 µM); MIC [12]: 4 µg/mL (≈ 9.53 µM); MIC [14]: 1 µg/mL (≈ 2.38 µM)
2 | Cc1cccc(-c2ccc(C3=NC(Cn4ccnc4)(c4ccc(F)cc4)CO3)s2)c1 (configuration not stated) | 16 µg/mL (≈ 38.3 µM) | > 64 µg/mL | 32 µg/mL (≈ 76.6 µM) | 0.25 µg/mL (≈ 0.599 µM) | > 64 µg/mL | 0.5 µg/mL (≈ 1.2 µM) | 16 µg/mL (≈ 38.3 µM) | 4 µg/mL (≈ 9.58 µM) | 
3 | COc1ccc(-c2ccc(C3=NC(Cn4ccnc4)(c4ccc(F)cc4)CO3)s2)cc1 (configuration not stated) | > 64 µg/mL | > 64 µg/mL | > 64 µg/mL | > 64 µg/mL | > 64 µg/mL | > 64 µg/mL | > 64 µg/mL | > 64 µg/mL | 
4 | Fc1ccc(C2(Cn3ccnc3)COC(c3ccc(-c4ccccc4)s3)=N2)cc1 (configuration not stated) | 0.25 µg/mL (≈ 0.62 µM) | 0.125 µg/mL (≈ 0.31 µM) | 4 µg/mL (≈ 9.91 µM) | 0.06 µg/mL (≈ 0.149 µM) | 0.125 µg/mL (≈ 0.31 µM) | 0.06 µg/mL (≈ 0.149 µM) | 0.5 µg/mL (≈ 1.24 µM) | 0.06 µg/mL (≈ 0.149 µM) | MIC [1]: 0.25 µg/mL (≈ 0.62 µM); Ratio [16]: 8; MIC [4]: 1 µg/mL (≈ 2.48 µM); IC50 [17]: 10.5 µM; MIC50 [18]: 2 µg/mL (≈ 4.96 µM); MIC [6]: 0.25 µg/mL (≈ 0.62 µM); IC50 [19]: > 50 µM; IC50 at 4 h [20]: 14.2 µM; IC50 [21]: > 50 µM; MIC [22]: 0.06 µg/mL (≈ 0.149 µM); MIC50 [23]: 16 µg/mL (≈ 39.7 µM); MIC [8]: 0.25 µg/mL (≈ 0.62 µM); MIC50 [24]: 4 µg/mL (≈ 9.91 µM); MIC50 [25]: 0.25 µg/mL (≈ 0.62 µM); MFC [26]: 0.5 µg/mL (≈ 1.24 µM); MIC [11]: 1 µg/mL (≈ 2.48 µM); MIC [12]: 0.5 µg/mL (≈ 1.24 µM); MIC [14]: 1 µg/mL (≈ 2.48 µM)
5 | N#Cc1ccc(-c2ccc(C3=NC(Cn4ccnc4)(c4ccc(F)cc4)CO3)s2)cc1 (configuration not stated) | > 64 µg/mL | > 64 µg/mL | 16 µg/mL (≈ 37.3 µM) | 1 µg/mL (≈ 2.33 µM) | > 64 µg/mL | 0.125 µg/mL (≈ 0.292 µM) | > 64 µg/mL | 16 µg/mL (≈ 37.3 µM) | 
6 | Clc1cccc(C2(Cn3ccnc3)COC(c3ccc(-c4ccccc4)s3)=N2)c1 (configuration not stated) | 4 µg/mL (≈ 9.53 µM) | > 64 µg/mL | > 64 µg/mL | > 64 µg/mL | > 64 µg/mL | > 64 µg/mL | 2 µg/mL (≈ 4.76 µM) | > 64 µg/mL | 
7 | Fc1ccc(C2(Cn3ccnc3)COC(c3ccc(-c4ccc(OCC(F)(F)F)cc4)s3)=N2)cc1 (configuration not stated) | > 64 µg/mL | > 64 µg/mL | > 64 µg/mL | > 64 µg/mL | > 64 µg/mL | > 64 µg/mL | > 64 µg/mL | > 64 µg/mL | 
8 | Fc1cccc(C2(Cn3ccnc3)COC(c3ccc(-c4ccccc4)s3)=N2)c1 (configuration not stated) | > 64 µg/mL | > 64 µg/mL | > 64 µg/mL | > 64 µg/mL | > 64 µg/mL | > 64 µg/mL | > 64 µg/mL | 8 µg/mL (≈ 19.8 µM) | 
9 | FC(F)(F)c1ccc(C2(Cn3ccnc3)COC(c3ccc(-c4ccccc4)s3)=N2)cc1 (configuration not stated) | > 64 µg/mL | > 64 µg/mL | > 64 µg/mL | 0.5 µg/mL (≈ 1.1 µM) | > 64 µg/mL | 0.125 µg/mL (≈ 0.276 µM) | > 64 µg/mL | > 64 µg/mL | 
10 | N#Cc1cccc(-c2ccc(C3=NC(Cn4ccnc4)(c4ccc(F)cc4)CO3)s2)c1 (configuration not stated) | > 64 µg/mL | > 64 µg/mL | 16 µg/mL (≈ 37.3 µM) | 0.5 µg/mL (≈ 1.17 µM) | > 64 µg/mL | 0.5 µg/mL (≈ 1.17 µM) | 2 µg/mL (≈ 4.67 µM) | 1 µg/mL (≈ 2.33 µM) | 
11 | CCc1ccc(-c2ccc(C3=NC(Cn4ccnc4)(c4ccc(F)cc4)CO3)s2)cc1 (configuration not stated) | 16 µg/mL (≈ 37.1 µM) | 64 µg/mL (≈ 148 µM) | 4 µg/mL (≈ 9.27 µM) | 4 µg/mL (≈ 9.27 µM) | > 64 µg/mL | 4 µg/mL (≈ 9.27 µM) | > 64 µg/mL | > 64 µg/mL | 
12 | Fc1ccc(-c2ccc(C3=NC(Cn4ccnc4)(c4ccc(F)cc4)CO3)s2)cc1 (configuration not stated) | > 64 µg/mL | > 64 µg/mL | 8 µg/mL (≈ 19 µM) | 1 µg/mL (≈ 2.37 µM) | 16 µg/mL (≈ 38 µM) | 2 µg/mL (≈ 4.75 µM) | 8 µg/mL (≈ 19 µM) | 0.5 µg/mL (≈ 1.19 µM) | 
13 | CCC(C)n1ncn(-c2ccc(N3CCN(c4ccc(OCC5COC(Cn6cncn6)(c6ccc(Cl)cc6Cl)O5)cc4)CC3)cc2)c1=O (configuration not stated) [ITRACONAZOLE] | 0.125 µg/mL (≈ 0.177 µM) | 0.125 µg/mL (≈ 0.177 µM) | 0.125 µg/mL (≈ 0.177 µM) | 0.03 µg/mL (≈ 0.0425 µM) | 0.125 µg/mL (≈ 0.177 µM) | 0.03 µg/mL (≈ 0.0425 µM) | 0.125 µg/mL (≈ 0.177 µM) | 0.03 µg/mL (≈ 0.0425 µM) | IC50 [17]: > 50 µM; MIC50 [18]: 32 µg/mL (≈ 45.3 µM); IC50 [19]: > 50 µM; IC50 at 4 h [20]: > 50 µM; IC50 [21]: > 50 µM; MIC50 [23]: > 64 µg/mL; MIC50 [24]: > 64 µg/mL; MIC50 [25]: 16 µg/mL (≈ 22.7 µM)
